In ChEMBL document CHEMBL3804813, “Discovery and optimization of new benzofuran derivatives against p53-independent malignant cancer cells through inhibition of HIF-1 pathway” (Bioorg Med Chem Lett, 2016):

Columns and labels:
[1] = Antiproliferative activity against human HCT116 cells expressing wild type p53 assessed as growth inhibition after 72 hrs by MTT assay; format: functional, cell-based; conditions: HCT-116, 72 h
[2] = Antiproliferative activity against human p53-null HCT116 cells assessed as growth inhibition after 72 hrs by MTT assay; format: functional, cell-based; conditions: HCT-116, 72 h
[3] = Antiproliferative activity against human MDA-MB-435S cells assessed as growth inhibition after 72 hrs by MTT assay; format: functional, cell-based
[4] = target: Hypoxia-inducible factor 1-alpha (Homo sapiens) (UniProt Q16665); assay: Inhibition of HIF-1 (unknown origin) expressed in human MCF7 cells co-transfected with hypoxia reporter plasmid p(HRE)3-Luc at 20 uM measured under hypoxia condition after 24 hrs by dual-luciferase reporter assay; format: cell-based
Chain of Hypoxia-inducible factor 1-alpha (Homo sapiens) (Q16665 whole entry, looked up): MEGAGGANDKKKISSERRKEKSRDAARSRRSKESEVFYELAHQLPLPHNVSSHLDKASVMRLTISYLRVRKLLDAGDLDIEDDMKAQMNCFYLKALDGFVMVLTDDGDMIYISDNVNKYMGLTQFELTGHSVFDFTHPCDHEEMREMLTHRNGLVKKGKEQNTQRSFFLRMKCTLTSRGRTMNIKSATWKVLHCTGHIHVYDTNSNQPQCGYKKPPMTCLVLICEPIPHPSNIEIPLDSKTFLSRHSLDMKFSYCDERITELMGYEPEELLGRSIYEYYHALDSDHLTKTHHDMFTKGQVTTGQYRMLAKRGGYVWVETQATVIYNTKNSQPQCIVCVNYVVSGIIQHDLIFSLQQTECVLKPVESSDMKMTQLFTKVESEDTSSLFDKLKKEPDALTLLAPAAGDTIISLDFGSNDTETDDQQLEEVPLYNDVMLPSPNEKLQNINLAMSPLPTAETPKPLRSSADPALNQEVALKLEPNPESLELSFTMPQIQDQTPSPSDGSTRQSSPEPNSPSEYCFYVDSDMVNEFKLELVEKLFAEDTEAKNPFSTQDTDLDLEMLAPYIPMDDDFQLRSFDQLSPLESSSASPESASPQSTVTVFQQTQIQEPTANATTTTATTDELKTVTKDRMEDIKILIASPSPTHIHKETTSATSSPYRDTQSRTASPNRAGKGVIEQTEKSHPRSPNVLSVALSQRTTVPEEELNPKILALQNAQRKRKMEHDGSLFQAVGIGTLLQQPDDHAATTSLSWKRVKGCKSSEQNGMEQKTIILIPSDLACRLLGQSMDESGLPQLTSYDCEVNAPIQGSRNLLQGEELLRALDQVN

MCF7 = assay: Antiproliferative activity against human MCF7 cells assessed as growth inhibition after 72 hrs by MTT assay; format: functional, cell-based; conditions: MCF7, 72 h

| Compound | IC50 [1] [µM] | IC50 [2] [µM] | IC50 [3] [µM] | inhibition [4] [%] | IC50 (MCF7) [µM] |
| --- | --- | --- | --- | --- | --- |
| Cc1c(C(=O)O)oc2ccc(N(Cc3ccccc3)S(=O)(=O)c3ccc(F)cc3)cc12 | > 40 | > 40 |  |  |  |
| CCOC(=O)c1oc2ccc(NS(=O)(=O)c3ccc(F)cc3)cc2c1C | 10.5 | > 40 |  |  |  |
| CCOC(=O)c1oc2ccc(N(Cc3ccccc3)S(=O)(=O)c3ccc([N+](=O)[O-])cc3)cc2c1C | > 40 | > 40 |  |  |  |
| CCOC(=O)c1oc2ccc(N(Cc3ccccc3)S(=O)(=O)c3cccc(Br)c3)cc2c1C | > 40 | > 40 |  |  |  |
| CCOC(=O)c1oc2ccc(N(Cc3ccc(Cl)cc3)S(=O)(=O)c3ccc(Cl)cc3)cc2c1C | 9.48 | 9.64 |  |  |  |
| CCOC(=O)c1oc2ccc(N(Cc3ccccc3)S(=O)(=O)c3ccc(F)cc3)cc2c1C | 5.82 | 33.1 |  |  |  |
| Cc1c(C(=O)NCCCn2ccnc2)oc2ccc(N(Cc3ccc(Cl)cc3)S(=O)(=O)c3ccc(Cl)cc3)cc12 | 2.43 | 1.89 | 7.25 | 27 | > 40 |
| Cc1c(C(=O)NCCCn2ccnc2)oc2ccc(N(Cc3ccccc3)S(=O)(=O)c3ccc(Cl)cc3)cc12 | 17.1 | 5 | 5.6 | 32.3 | 31.8 |
| CCOC(=O)c1oc2ccc(NS(=O)(=O)c3ccc(Cl)cc3)cc2c1C | 24.3 | > 40 |  |  |  |
| CCOC(=O)c1oc2ccc(N(Cc3ccccc3)S(=O)(=O)c3ccc(C)cc3)cc2c1C | > 40 | > 40 |  |  |  |
| CCOC(=O)c1oc2ccc(N(Cc3ccc(Br)cc3)S(=O)(=O)c3ccc(Br)cc3)cc2c1C | 10.9 | 5.22 |  |  |  |
| CCOC(=O)c1oc2ccc(N(Cc3ccccc3)S(=O)(=O)c3ccc(Br)cc3)cc2c1C | 9.46 | 8.7 |  |  |  |
| Cc1c(C(=O)O)oc2ccc(N(Cc3ccc(Br)cc3)S(=O)(=O)c3ccc(Br)cc3)cc12 | 8.58 | > 40 |  |  |  |
| Cc1c(C(=O)O)oc2ccc(N(Cc3ccccc3)S(=O)(=O)c3ccc(Br)cc3)cc12 | 7.09 | 20 |  |  |  |
| Cc1c(C(=O)NCCN(C)C)oc2ccc(N(Cc3ccc(Cl)cc3)S(=O)(=O)c3ccc(Cl)cc3)cc12 | 5.38 | 3.87 | 10.8 | 12.7 | 5.84 |
| CCOC(=O)c1oc2ccc(N(Cc3ccccc3)S(=O)(=O)c3ccccc3Br)cc2c1C | > 40 | > 40 |  |  |  |
